For assay [1], the system named is D. immitis microfilariae. Put plainly: Dog heart worm microfilariae motility inhibition (Example A). Type of assay: cell-based. The note with it: read-out: EC50 (motility inhibition).
In assay [2] the test system is H. contortus (H.c.) larvae. Nature of the assay: Ruminant gastrointestinal H. contortus larvae motility inhibition (Example B). The note with it: Haemonchus contortus, read-out: EC50 (motility inhibition).
Experimental: H.c. eggs isolated from lamb fecal matter are allowed to hatch overnight. Test compounds are diluted in DMSO and added to a 96-well plate containing appropriate media. H.c. larvae are added to each well and plates are incubated for the desired time(s). Motility is assessed using an LCD camera imaging system. Percent motility inhibition values are generated relative to the average of the DMSO-only wells.

SMILES strings stand for the structures. Some results are limits rather than exact numbers.

Turning to `C[C@H]1COc2ccccc2[C@H]1NC(=O)c1cnc2c(-c3cc(Cl)cc(Cl)c3)nccc2c1N(C)C` (racemic) [Example 1.39, 8-(3,5-dichlorophenyl)-4-(dimethylamino)-N-[rac-(3R,4S)-3-methylchroman-4-yl]-1,7-naphthyridine-3-carboxamide], the EC50 (in general, the concentration that produces a half-maximal response) was under 0.1 µg/mL in assay [1] and under 1 µg/mL in assay [2].

On to `CN(C)c1c(C(=O)N[C@H]2CCOc3ccccc32)cnc2c(-c3cc(Cl)cc(Cl)c3)nccc12` [Example 1.1, N-[(4S)-chroman-4-yl]-8-(3,5-dichlorophenyl)-4-(dimethylamino)-1,7-naphthyridine-3-carboxamide], for which the EC50 in assay [1] was under 0.1 µg/mL; in assay [2], under 1 µg/mL.

For `CN(C)c1c(C(=O)N[C@H]2CCOc3ccccc32)cnc2c(N3CCc4cc(Cl)ccc43)nccc12` [Example 1.7, 8-(5-chloroindolin-1-yl)-N-[(4S)-chroman-4-yl]-4-(dimethylamino)-1,7-naphthyridine-3-carboxamide], the EC50 in assay [2] was under 1 µg/mL.

`O=C(N[C@H]1CCOc2ccccc21)c1cnc2c(-c3cc(Cl)cc(Cl)c3)nccc2c1N1CCOCC1` [Example 1.9, N-[(4S)-chroman-4-yl]-8-(3,5-dichlorophenyl)-4-morpholino-1,7-naphthyridine-3-carboxamide]: the EC50 in assay [1] is under 0.1 µg/mL; in assay [2] it was under 1 µg/mL.

`Nc1c(C(=O)N[C@H]2CCOc3ccccc32)cnc2c(-c3cc(Cl)cc(Cl)c3)nccc12` [Example 1.12, 4-amino-N-[(4S)-chroman-4-yl]-8-(3,5-dichlorophenyl)-1,7-naphthyridine-3-carboxamide]: the EC50 was under 0.1 µg/mL in assay [1] and under 1 µg/mL in assay [2].

Regarding `CN(C)c1c(C(=O)N[C@H]2CCOc3cc(F)ccc32)cnc2c(-c3cc(Cl)cc(Cl)c3)nccc12` [Example 1.17, 8-(3,5-dichlorophenyl)-4-(dimethylamino)-N-[(4S)-7-fluorochroman-4-yl]-1,7-naphthyridine-3-carboxamide], the EC50 is under 0.1 µg/mL in assay [1] and under 1 µg/mL in assay [2].

With `O=C(N[C@H]1CCOc2ccccc21)c1cnc2c(-c3cc(Cl)cc(Cl)c3)nccc2c1C1CC1` [Example 1.20, N-[(4S)-chroman-4-yl]-4-cyclopropyl-8-(3,5-dichlorophenyl)-1,7-naphthyridine-3-carboxamide], the EC50 is under 0.1 µg/mL in assay [1] and under 1 µg/mL in assay [2].

For the molecule `CN(C)c1c(C(=O)N[C@H]2CCc3ccccc32)cnc2c(-c3cc(Cl)cc(Cl)c3)nccc12` [Example 1.21, 8-(3,5-dichlorophenyl)-4-(dimethylamino)-N-[(1S)-indan-1-yl]-1,7-naphthyridine-3-carboxamide], the results for the half-maximal effective concentration (EC50) in assay [1] and in assay [2] were under 0.1 µg/mL and under 1 µg/mL, respectively.

With `COc1ccc(F)c(-c2nccc3c(N(C)C)c(C(=O)N[C@H]4CCOc5ccccc54)cnc23)c1F` [Example 1.24, N-[(4S)-chroman-4-yl]-8-(2,6-difluoro-3-methoxyphenyl)-4-(dimethylamino)-1,7-naphthyridine-3-carboxamide], the EC50 in assay [1] is under 0.1 µg/mL; in assay [2] it was under 1 µg/mL.

Turning to `O=C(N[C@H]1CCOc2ccccc21)c1cnc2c(-c3cc(Cl)cc(Cl)c3)nccc2c1Cl` [Example 1.30, 4-chloro-N-[(4S)-chroman-4-yl]-8-(3,5-dichlorophenyl)-1,7-naphthyridine-3-carboxamide], the EC50 in assay [1] is under 0.1 µg/mL.

Regarding `CON(C)c1c(C(=O)N[C@H]2CCOc3ccccc32)cnc2c(-c3cc(Cl)cc(Cl)c3)nccc12` [Example 1.31, N-[(4S)-chroman-4-yl]-8-(3,5-dichlorophenyl)-4-[methoxy(methyl)amino]-1,7-naphthyridine-3-carboxamide], the EC50 is under 0.1 µg/mL in assay [1] and under 1 µg/mL in assay [2].

For the molecule `CN(C)c1c(C(=O)N[C@H]2CCCc3ccccc32)cnc2c(-c3cc(Cl)cc(Cl)c3)nccc12` [Example 1.32, 8-(3,5-dichlorophenyl)-4-(dimethylamino)-N-[(1S)-tetralin-1-yl]-1,7-naphthyridine-3-carboxamide], the EC50 in assay [1] was under 0.1 µg/mL; in assay [2], under 1 µg/mL.

For the molecule `COc1c(C(=O)N[C@H]2CCOc3ccccc32)cnc2c(-c3cc(Cl)cc(Cl)c3)nccc12` [Example 1.33, N-[(4S)-chroman-4-yl]-8-(3,5-dichlorophenyl)-4-methoxy-1,7-naphthyridine-3-carboxamide], the EC50 in assay [1] was under 0.1 µg/mL; in assay [2] it was under 1 µg/mL.

As to `O=C1CN(c2c(C(=O)N[C@H]3CCOc4ccccc43)cnc3c(-c4cc(Cl)cc(Cl)c4)nccc23)CN1` [Example 1.37, N-[(4S)-chroman-4-yl]-8-(3,5-dichlorophenyl)-4-(4-oxoimidazolidin-1-yl)-1,7-naphthyridine-3-carboxamide], the EC50 in assay [1] was under 0.1 µg/mL; in assay [2] it was under 1 µg/mL.

`N#CCc1c(C(=O)N[C@H]2CCOc3ccccc32)cnc2c(-c3cc(Cl)cc(Cl)c3)nccc12` [Example 1.38, N-[(4S)-chroman-4-yl]-4-(cyanomethyl)-8-(3,5-dichlorophenyl)-1,7-naphthyridine-3-carboxamide]: the results for the EC50 in assay [1] and in assay [2] were under 0.1 µg/mL and under 1 µg/mL, respectively.

With `CC(C)c1c(C(=O)N[C@H]2CCOc3ccccc32)cnc2c(-c3cc(Cl)cc(Cl)c3)nccc12` [Example 1.42, N-[(4S)-chroman-4-yl]-8-(3,5-dichlorophenyl)-4-isopropyl-1,7-naphthyridine-3-carboxamide], the half-maximal effective concentration (EC50) in assay [1] was under 0.1 µg/mL; in assay [2], under 1 µg/mL.

`Cc1ccc2c(c1)OCC[C@@H]2NC(=O)c1cnc2c(-c3cc(Cl)cc(Cl)c3)nccc2c1N(C)C` [Example 1.45, 8-(3,5-dichlorophenyl)-4-(dimethylamino)-N-[(4S)-7-methylchroman-4-yl]-1,7-naphthyridine-3-carboxamide]: the concentration for a half-maximal effect (EC50) in assay [1] was under 0.1 µg/mL; in assay [2], under 1 µg/mL.

On to `CN(C)c1c(C(=O)N[C@@H]2CCOc3ccsc32)cnc2c(-c3cc(Cl)cc(Cl)c3)nccc12` [Example 1.47, 8-(3,5-dichlorophenyl)-N-[(7R)-6,7-dihydro-5H-thieno[3,2-b]pyran-7-yl]-4-(dimethylamino)-1,7-naphthyridine-3-carboxamide], for which the concentration giving a half-maximal response (EC50) in assay [1] was under 0.1 µg/mL; in assay [2], under 1 µg/mL.

On to `CN(C)c1c(C(=O)N[C@H]2CCOc3ccccc32)cnc2c(-c3cc(F)cc(F)c3)nccc12` [Example 1.48, N-[(4S)-chroman-4-yl]-8-(3,5-difluorophenyl)-4-(dimethylamino)-1,7-naphthyridine-3-carboxamide], for which the EC50 in assay [1] was under 0.1 µg/mL; in assay [2], under 1 µg/mL.

For `CN(C)c1c(C(=O)N[C@H]2CCOc3ccccc32)cnc2c(-c3ccccc3F)nccc12` [Example 1.49, N-[(4S)-chroman-4-yl]-8-(2-fluorophenyl)-4-(dimethylamino)-1,7-naphthyridine-3-carboxamide], the EC50 in assay [1] was under 0.1 µg/mL.

Turning to `CN(C)c1c(C(=O)N[C@H]2CCOc3ccccc32)cnc2c(-c3cc(F)c(F)c(F)c3)nccc12` [Example 1.51, N-[(4S)-chroman-4-yl]-4-(dimethylamino)-8-(3,4,5-trifluorophenyl)-1,7-naphthyridine-3-carboxamide], the EC50 is under 0.1 µg/mL in assay [1] and under 1 µg/mL in assay [2].

As for `CN(C)c1c(C(=O)N[C@H]2CCOc3ccccc32)cnc2c(-c3cc(C(F)(F)F)cc(C(F)(F)F)c3)nccc12` [Example 1.52, 8-[3,5-bis(trifluoromethyl)phenyl]-N-[(4S)-chroman-4-yl]-4-(dimethylamino)-1,7-naphthyridine-3-carboxamide], in assay [1], the EC50 is under 0.1 µg/mL.

`CN(C)c1c(C(=O)N[C@H]2CCOc3ccccc32)cnc2c(-c3ccc(Cl)cc3Cl)nccc12` [Example 1.54, N-[(4S)-chroman-4-yl]-8-(2,4-dichlorophenyl)-4-(dimethylamino)-1,7-naphthyridine-3-carboxamide]: the EC50 is under 0.1 µg/mL in assay [1] and under 1 µg/mL in assay [2].

Regarding `CN(C)c1c(C(=O)N[C@H]2CCOc3ccccc32)cnc2c(-c3cccc(Cl)c3Cl)nccc12` [Example 1.55, N-[(4S)-chroman-4-yl]-8-(2,3-dichlorophenyl)-4-(dimethylamino)-1,7-naphthyridine-3-carboxamide], the EC50 is under 0.1 µg/mL in assay [1] and under 1 µg/mL in assay [2].

As for `CN(C)c1c(C(=O)N[C@H]2CCOc3ccccc32)ncc2c(-c3cc(Cl)cc(Cl)c3)cccc12` [Example 2.1, N-[(4S)-chroman-4-yl]-8-(3,5-dichlorophenyl)-4-(dimethylamino) isoquinoline-3-carboxamide], the results for the EC50 in assay [1] and in assay [2] were under 0.1 µg/mL and under 1 µg/mL, respectively.

With `CN(C)c1c(C(=O)N[C@H]2CCOc3ccccc32)ncc2c(-c3cc(Cl)cc(Cl)c3)nccc12` [Example 3.1, N-[(4S)-chroman-4-yl]-8-(3,5-dichlorophenyl)-4-(dimethylamino)-2,7-naphthyridine-3-carboxamide], the half-maximal effective concentration (EC50) in assay [2] is under 1 µg/mL.

In the case of `CN(C)c1c(C(=O)N[C@H]2CCOc3ccccc32)ccc2c(-c3cc(Cl)cc(Cl)c3)nccc12` [Example 4.1, N-[(4S)-chroman-4-yl]-1-(3,5-dichlorophenyl)-5-(dimethylamino)isoquinoline-6-carboxamide], the EC50 in assay [1] was under 0.1 µg/mL; in assay [2] it was under 1 µg/mL.

For the molecule `CN(C)c1c(C(=O)N[C@H]2CCOc3ccccc32)ccc2c(-c3cc(Cl)cc(Cl)c3)cccc12` [Example 5.1], the values for the EC50 in assay [1] and in assay [2] were under 0.1 µg/mL and under 1 µg/mL, respectively.

On to `CN(C)c1c(C(=O)N[C@H]2CCOc3ccccc32)ccc2c(-c3cc(Cl)cc(Cl)c3)ccnc12` [Example 6.1, N-[(4S)-Chroman-4-yl]-4-(3,5-dichlorophenyl)-8-(dimethylamino)quinoline-7-carboxamide], for which the results for the EC50 in assay [1] and in assay [2] were under 0.1 µg/mL and under 1 µg/mL, respectively.

On to `CN(C)c1c(C(=O)N[C@H]2CCOc3ccccc32)ccc2c(-c3cc(Cl)cc(Cl)c3)cncc12` [Example 7.1, N-[(4S)-Chroman-4-yl]-4-(3,5-dichlorophenyl)-8-(dimethylamino)isoquinoline-7-carboxamide], for which the EC50 is under 0.1 µg/mL in assay [1] and under 1 µg/mL in assay [2].

The record behind these values is patent US20260209228A1 (Elanco Tiergesundheit AG, priority 2018, published 2026).
